Structures can show the parent of a compound that is named as a salt. Where two headings read alike, the source gives them in different places. Where a SMILES comes first, the peptide text is derived from it. [ ]: non-standard residue; d: D form. sY = N[C@@H](Cc1ccc(OS(=O)(=O)O)cc1)C(=O)O; pGlu = O=C1CC[C@@H](C(=O)O)N1
Assays:
[1] = system: patients of schizophrenia
Experimental: (1) Method of application: Caerulein tris-diethylamine salt is dissolved in sterilized physiological saline at a rate of 20 μg/ml (W/V), and intramuscularly injected to each patient once at a dose of 0.3 μg/kg (body weight) or 0.6 μg/kg (body weight).

rats = conditions: intravenous, cited from earlier work
mice = conditions: intravenous, cited from earlier work

CSCC[C@H](NC(=O)[C@H](Cc1c[nH]c2ccccc12)NC(=O)CNC(=O)[C@@H](NC(=O)[C@H](Cc1ccc(OS(=O)(=O)O)cc1)NC(=O)[C@H](CC(=O)O)NC(=O)[C@H](CCC(N)=O)NC(=O)[C@@H]1CCC(=O)N1)[C@@H](C)O)C(=O)N[C@@H](CC(=O)O)C(=O)N[C@@H](Cc1ccccc1)C(N)=O [Caerulein tris-diethylamine salt] ([pGlu]QD[sY]TGWMDF-NH2)
Side effect ([1]; individual schizophrenia patient, after i.m. injection): No

CSCC[C@H](NC(=O)[C@H](Cc1c[nH]c2ccccc12)NC(=O)CNC(=O)[C@@H](NC(=O)[C@H](Cc1ccc(OS(=O)(=O)O)cc1)NC(=O)[C@H](CC(=O)O)NC(=O)[C@H](CCC(N)=O)NC(=O)[C@@H]1CCC(=O)N1)[C@@H](C)O)C(=O)N[C@@H](CC(=O)O)C(=O)N[C@@H](Cc1ccccc1)C(N)=O [caerulein, 5-oxo-L-prolyl-L-glutaminyl-L-aspartyl-O-sulfo-L-tryosyl-L-threonylglycyl-L-tryptophyl-L-methionyl-L-aspartyl-L-phenylalaninamide] ([pGlu]QD[sY]TGWMDF-NH2)
LD50 (rats; female): 571 mg/kg
LD50 (rats; male): 714 mg/kg
LD50 (mice; female): 702 mg/kg
LD50 (mice; male): 647 mg/kg
mental conditions ([1]; administered to humans): improves rapidly and markedly the mental conditions
